Test results reported in patent publication US20230172945A1, “APPLICATION OF COMPOUNDS IN CONTROLLING OR KILLING MITES” (SMILEBIOTEK ZHUHAI LIMITED, priority 2020, published 2023).

Tested on: D. folliculorum
Assay: In-vitro culture of Demodex mites: effect of compounds on survival time
Assay type: cell-based
Details: for Survival time: in vitro, 35 μL solution in 10% DMSO on glass slide, observed every 2 hours, mean ± spread; for Survival time / survival time of the Demodex mites in vitro: 20° C., humidity 96%; for survival time of the Demodex mites in vitro: compared with negative control 10% DMSO (80.79±25.34); for effect on survival time of mites as compared with the control group (in words): versus 10% DMSO negative control
Method: The powders of the reference compounds shown in Table 1 were separately dissolved in dimethyl sulfoxide (DMSO), and then diluted with sterilized double-distilled water to make the final concentration of DMSO 10%, which could not shorten the survival time of Demodex mites as per a controlled study. The negative control group received DMSO mixed with sterilized water at a final concentration of 10%.
35 μL of each solution was added to a glass slide, and the survival of the mites was observed under an optical microscope every 2 hours. During the experiment, the Demodex mites were observed by two skilled operators separately for the activities (bodies, limbs and the like) through the microscope to determine whether they were dead or not. If the two operators gave different results, the survival status was determined independently by a third skilled operator. The in-vitro culture was conducted in a climatic chamber at a temperature of 20° C. and a humidity of 96%. During the observation, the glass slides were transported in a wet box to ensure the high humidity.
In this experiment, statistical analysis was conducted using SPSS22.0 statistical software, normality test was conducted using Shapiro-Wilk test, and homogeneity of variance test was conducted using Bartlett's test.
Effects of compounds on survival time of D. folliculorum The in-vitro culture of the Demodex mites was conducted in an environment at a humidity of 96% and a temperature of 20° C. The survival of the Demodex mites was observed dynamically and the survival time was recorded.

| SMILES | Survival time | survival time of the Demodex mites in vitro | effect on survival time of mites as compared with the control group (in words) |
| --- | --- | --- | --- |
| C=C(C)[C@@H]1CC[C@]2(C)CC[C@]3(C)[C@H](CC[C@@H]4[C@@]5(C)CCC(=O)C(C)(C)[C@@H]5CC[C@]43C)[C@@H]12 [Lupenone] | 66.25 ± 31.22 h | – | – |
| COc1ccc(-c2cc(=O)c3c(O)cc(O)cc3o2)cc1O [Diosmetin] | 35.92 ± 14.82 h | 35.92±14.82 | significantly shorten the survival time of mites |
| C=C1CC[C@]2(C)CC[C@]3(C)[C@H](CC[C@@H]4[C@@]5(C)CC[C@H](OC(C)=O)C(C)(C)[C@@H]5CC[C@]43C)[C@H]2[C@@H]1C [Taraxasterol acetate] | 34.14 ± 22.96 h | 37.91±20.96 | significantly shorten the survival time of mites |
| C=C(C)[C@@H]1CC[C@]2(C)[C@H](CC=C3[C@@H]4[C@@H](C)[C@H](C)CC[C@]4(C)CC[C@]32C)[C@@]1(C)CCC(=O)O [Roburic acid] | 63.41 ± 12.20 h | – | – |
| CC(=O)O[C@H]1CC[C@]2(C)[C@H]3CC[C@]4(C)C(=CC[C@@]5(C)CCC(C)(C)C[C@H]54)[C@]3(C)CC[C@H]2C1(C)C [Taraxeryl acetate] | 70.57 ± 27.45 h | – | – |
| CC1(C)CC[C@]2(C)CC=C3[C@]4(C)CC[C@H]5C(C)(C)[C@@H](O)CC[C@]5(C)[C@H]4CC[C@@]3(C)[C@@H]2C1 [Taraxerol] | 37.91 ± 20.96 h | 37.91±20.96 | significantly shorten the survival time of mites |
| CC1(C)CC[C@]2(C)CC=C3[C@]4(C)CC[C@H]5C(C)(C)C(=O)CC[C@]5(C)[C@H]4CC[C@@]3(C)[C@@H]2C1 [Taraxerone] | 62.06 ± 28.97 h | – | – |
| C=C1CC[C@]2(C)CC[C@]3(C)[C@H](CC[C@@H]4[C@@]5(C)CC[C@H](O)C(C)(C)[C@@H]5CC[C@]43C)[C@H]2[C@@H]1C [Taraxasterol] | 68.28 ± 31.30 h | – | – |
| C[C@@H]1[C@H]2[C@H](O[C@@H]3O[C@H](CO)[C@@H](O)[C@H](O)[C@H]3O)OC=C(C(=O)O)[C@H]2C[C@@H]1O [Loganic acid] | 61.56 ± 22.84 h | – | – |
| C=C[C@H]1[C@H](O[C@@H]2O[C@H](CO)[C@@H](O)[C@H](O)[C@H]2O)OC=C2C(=O)OCC[C@]21O [Swertiamarin] | 59.68 ± 10.97 h | – | – |
| C=C[C@@H]1C2=CCOC(=O)C2=CO[C@H]1O[C@@H]1O[C@H](CO)[C@@H](O)[C@H](O)[C@H]1O [Gentiopicroside] | 37.31 ± 36.06 h | 37.31±36.06 | significantly shorten the survival time of mites |
| C=C[C@H]1[C@H](O[C@@H]2O[C@H](CO)[C@@H](O)[C@H](O)[C@H]2O)OC=C2C(=O)OCC[C@H]21 [Sweroside] | 60.79 ± 25.98 h | – | – |
